Here are results for 48 molecules from publication PMC12163085, “Targeting transcription factors through an IMiD independent zinc finger domain” (EMBO Molecular Medicine, 2025).

Experiment [1] deals with SNU398. Briefly: cells. Further details: species or system SNU387, SNU398 and SNU387 isogenic lines; CellTiter-Glo luminescence viability dose response in 384-well plates, nonlinear regression. As to conditions: Homo sapiens, SNU-398; 72 h cell viability; read-out: EC50 / SNU398Hi. As to the method: (§1) Empty vector, SALL4A, and SALL4B expressing isogenic cell lines were generated by transducing the SALL4 negative hepatocellular carcinoma SNU-387 cells with empty vector, SALL4A, or SALL4B FUW-Luc-mCh-puro lentiviral constructs. Cells were plated in 50 μl of RPMI culture media in 384-well white flat-bottom plates (Corning) and incubated at 37 °C in a humidified atmosphere of 5% CO2 overnight. Cell numbers per well were 1500 for SNU-398, and 750 for SNU-387 and SNU-387 isogenic lines. After overnight incubation, varying concentrations of compounds 1–80 were added to cells with multichannel electronic pipettes (Rainin). Cells were then incubated for 72 h at 37 °C in a humidified atmosphere of 5% CO2 before 10 μl of CellTiter-Glo reagent was added to the wells with the MultiFlo Microplate Dispenser (BioTek). Cells were incubated at room temperature for a minimum of 10 min, after which luminescence readings were recorded by an Infinite M1000 Microplate Reader (Tecan). Each data point was performed in n = 3 independent cell cultures. IC50 of compounds were determined using nonlinear regression fitting from Prism (GraphPad). Cell-based screening was next employed to evaluate the growth inhibitory activity of the test compounds against SALL4 expressing malignant cells. SNU398, a liver cancer cell line with high endogenous levels of SALL4, and SNU387, a liver cancer cell line with undetectable levels of SALL4, were used for comparison. Cells were incubated with the test compound at 1 μM for 72 h, after which cell viability was assessed. […] Next, we carried out dose escalation studies on all SH compounds to deduce their EC50 values on SNU387 and SNU398. In order to interrogate the effects of compounds targeting SALL4, we created isogenic cells by overexpressing SALL4A (SNU387-TgSALL4A) or SALL4B (SNU387-TgSALL4B) in SNU387 cells (Tan et al, [2019]) (Fig. 2B, and Dataset EV4). The EC50 of SH2, SH6, and SH7 in SALL4 high SNU398 cells were 0.4 μM, 0.5 μM, and 0.3 μM, respectively. In contrast, the EC50 values of the same compounds were more than 10 μM on SALL4 low SNU387 cells.

Experiment [2] concerns SNU387. Briefly: cells. Details: species or system SNU398 and SNU387 isogenic lines; CellTiter-Glo luminescence viability dose response in 384-well plates, nonlinear regression. As to conditions: Homo sapiens, SNU-387; 72 h cell viability; read-out: EC50 / SNU387Lo. As to the method: as §1

A value given as a limit tells only on which side of the number the result lay.

For the molecule `COc1ccc(N)c(NC(=O)/C=C/c2cccnc2Nc2ccc(F)cc2)c1` [SH18], the EC50 in experiment [1] was ~2 µM; in experiment [2], > 30 µM.
For the molecule `COc1cc(Nc2ncccc2C(=O)NO)cc(OC)c1OC` [SH48], the EC50 in experiment [1] and in experiment [2] was > 30 µM throughout.
Regarding `Nc1ccc(Cl)cc1NC(=O)c1cccnc1Nc1ccc(Cl)cc1` [SH78], the EC50 in experiment [1] is ~25 µM; in experiment [2] it was > 30 µM.
For `COc1cc(Nc2ncccc2C(=O)Nc2cc(C)c(C)cc2N)cc(OC)c1OC` [SH44], in that order: > 30 µM and > 30 µM.
Regarding `COc1ccc(Nc2ncccc2/C=C/C(=O)Nc2cc(OC)ccc2N)cc1` [SH10], the EC50 in experiment [1] is ~2.5 µM; in experiment [2] it was > 30 µM.
For `Nc1ccc(Cl)cc1NC(=O)/C=C/c1cccnc1Nc1ccc(Cl)cc1` [SH38], in that order: ~15 µM and > 30 µM.
The like results for `Nc1cc(Cl)c(Cl)cc1NC(=O)/C=C/c1cccnc1Nc1ccc(Cl)cc1` [SH39] were, in that order, ~16 µM and ~25 µM.
For `Nc1ccccc1NC(=O)c1cccnc1Nc1ccc(F)cc1` [SH57], in that order: > 30 µM and > 30 µM.
In the case of `COc1cc(Nc2ncccc2C(=O)Nc2cc(Cl)ccc2N)cc(OC)c1OC` [SH46], the EC50 in experiment [1] and in experiment [2] was > 30 µM throughout.
As for `COc1ccc(Nc2ncccc2C(=O)Nc2cc(OC)ccc2N)cc1` [SH50], the EC50 in experiment [1] and in experiment [2] was > 30 µM throughout.
For `COc1cc(Nc2ncccc2/C=C/C(=O)Nc2ccccc2N)cc(OC)c1OC` [SH1], the results for the EC50 in experiment [1] and in experiment [2] were ~3 µM and ~30 µM, respectively.
The like results for `COc1cc(Nc2ncccc2/C=C/C(=O)NO)cc(OC)c1OC` [SH8] were, in that order, > 30 µM and > 30 µM.
The like results for `Nc1cc(Cl)c(Cl)cc1NC(=O)/C=C/c1cccnc1Nc1ccc(F)cc1` [SH23] were, in that order, ~12 µM and ~25 µM.
The like results for `Nc1cc(Cl)c(Cl)cc1NC(=O)c1cccnc1Nc1ccc(C(F)(F)F)cc1` [SH71] were, in that order, ~16 µM and ~25 µM.
Turning to `COc1ccc(N)c(NC(=O)c2cccnc2Nc2ccc(C(F)(F)F)cc2)c1` [SH66], the EC50 in experiment [1] was ~25 µM; in experiment [2], > 30 µM.
For `Nc1ccc(Cl)cc1NC(=O)c1cccnc1Nc1ccc(C(F)(F)F)cc1` [SH70], in that order: ~25 µM and > 30 µM.
For `COc1ccc(Nc2ncccc2/C=C/C(=O)Nc2cc(C)c(C)cc2N)cc1` [SH12], in that order: ~25 µM and > 30 µM.
The like results for `COc1cc(Nc2ncccc2C(=O)Nc2cc(C)ccc2N)cc(OC)c1OC` [SH43] were, in that order, ~12 µM and ~30 µM.
`COc1ccc(N)c(NC(=O)c2cccnc2Nc2ccc(Cl)cc2)c1` [SH74]: the EC50 in experiment [1] is ~20 µM; in experiment [2], > 30 µM.
For `O=C(NO)c1cccnc1Nc1ccc(F)cc1` [SH64], the EC50 in experiment [1] and in experiment [2] was > 30 µM in each case.
For the molecule `COc1ccc(Nc2ncccc2C(=O)Nc2cc(Cl)ccc2N)cc1` [SH54], the EC50 in experiment [1] and in experiment [2] was > 30 µM each time.
For `COc1ccc(Nc2ncccc2C(=O)Nc2cc(C)ccc2N)cc1` [SH51], the EC50 in experiment [1] and in experiment [2] was > 30 µM each time.
In the case of `COc1ccc(Nc2ncccc2/C=C/C(=O)Nc2cc(C)ccc2N)cc1` [SH11], the EC50 was ~3 µM in experiment [1] and ~10 µM in experiment [2].
The like results for `Cc1cc(N)c(NC(=O)c2cccnc2Nc2ccc(Cl)cc2)cc1C` [SH76] were, in that order, ~30 µM and > 30 µM.
As for `Nc1ccc(F)cc1NC(=O)c1cccnc1Nc1ccc(C(F)(F)F)cc1` [SH69], the EC50 was ~16 µM in experiment [1] and > 30 µM in experiment [2].
The like results for `COc1ccc(Nc2ncccc2C(=O)Nc2cc(Cl)c(Cl)cc2N)cc1` [SH55] were, in that order, ~25 µM and > 30 µM.
Turning to `COc1ccc(N)c(NC(=O)/C=C/c2cccnc2Nc2ccc(C(F)(F)F)cc2)c1` [SH26], the EC50 in experiment [1] was ~6 µM; in experiment [2], ~12 µM.
For `COc1ccc(Nc2ncccc2/C=C/C(=O)Nc2ccccc2N)cc1` [SH9], in that order: ~25 µM and > 30 µM.
The like results for `Cc1ccc(N)c(NC(=O)c2cccnc2Nc2ccc(C(F)(F)F)cc2)c1` [SH67] were, in that order, > 30 µM and > 30 µM.
For `COc1ccc(Nc2ncccc2/C=C/C(=O)Nc2cc(Cl)ccc2N)cc1` [SH14], in that order: ~7 µM and ~25 µM.
With `Cc1ccc(N)c(NC(=O)/C=C/c2cccnc2Nc2ccc(C(F)(F)F)cc2)c1` [SH27], the EC50 in experiment [1] was ~12 µM; in experiment [2], > 30 µM.
For `Cc1cc(N)c(NC(=O)/C=C/c2cccnc2Nc2ccc(C(F)(F)F)cc2)cc1C` [SH28], in that order: ~12 µM and ~25 µM.
In the case of `O=C(/C=C/c1cccnc1Nc1ccc(C(F)(F)F)cc1)NO` [SH32], the EC50 in experiment [1] is ~8 µM; in experiment [2], > 30 µM.
For `COc1cc(Nc2ncccc2/C=C/C(=O)Nc2cc(F)ccc2N)cc(OC)c1OC` [SH5], in that order: ~2.5 µM and > 30 µM.
The like results for `COc1ccc(Nc2ncccc2C(=O)Nc2cc(C)c(C)cc2N)cc1` [SH52] were, in that order, > 30 µM and > 30 µM.
The like results for `COc1cc(Nc2ncccc2C(=O)Nc2cc(F)ccc2N)cc(OC)c1OC` [SH45] were, in that order, > 30 µM and > 30 µM.
As for `Nc1ccccc1NC(=O)/C=C/c1cccnc1Nc1ccc(F)cc1` [SH17], the EC50 was ~30 µM in experiment [1] and > 30 µM in experiment [2].
For the molecule `Nc1ccc(F)cc1NC(=O)/C=C/c1cccnc1Nc1ccc(Cl)cc1` [SH37], the EC50 in experiment [1] is ~17 µM; in experiment [2], > 30 µM.
For `Cc1cc(N)c(NC(=O)/C=C/c2cccnc2Nc2ccc(Cl)cc2)cc1C` [SH36], in that order: ~17 µM and > 30 µM.
As for `COc1ccc(Nc2ncccc2C(=O)Nc2cc(F)ccc2N)cc1` [SH53], the EC50 in experiment [1] and in experiment [2] was > 30 µM each time.
In the case of `Nc1ccccc1NC(=O)/C=C/c1cccnc1Nc1ccc(Cl)cc1` [SH33], the EC50 in experiment [1] was ~20 µM; in experiment [2], > 30 µM.
In the case of `COc1ccc(Nc2ncccc2C(=O)Nc2ccccc2N)cc1` [SH49], the EC50 in experiment [1] and in experiment [2] was > 30 µM each time.
Regarding `Nc1ccc(F)cc1NC(=O)/C=C/c1cccnc1Nc1ccc(C(F)(F)F)cc1` [SH29], the EC50 in experiment [1] was ~12 µM; in experiment [2] it was > 30 µM.
For `COc1ccc(N)c(NC(=O)c2cccnc2Nc2ccc(F)cc2)c1` [SH58], in that order: > 30 µM and > 30 µM.
The like results for `Nc1cc(Cl)c(Cl)cc1NC(=O)c1cccnc1Nc1ccc(F)cc1` [SH63] were, in that order, ~20 µM and > 30 µM.
The like results for `COc1ccc(Nc2ncccc2/C=C/C(=O)Nc2cc(Cl)c(Cl)cc2N)cc1` [SH15] were, in that order, ~20 µM and > 30 µM.
As to `Cc1ccc(N)c(NC(=O)c2cccnc2Nc2ccc(Cl)cc2)c1` [SH75], the EC50 in experiment [1] and in experiment [2] was > 30 µM throughout.
For the molecule `Nc1ccccc1NC(=O)/C=C/c1cccnc1Nc1ccc(C(F)(F)F)cc1` [SH25], the results for the EC50 in experiment [1] and in experiment [2] were 30 µM and > 30 µM, respectively.
